In patent publication US20120277211A1, “METHODS AND COMPOSITIONS FOR THE TREATMENT OF PSYCHOTIC DISORDERS THROUGH THE IDENTIFICATION OF THE SULT4A1-1 HAPLOTYPE” (priority 2009, published 2012):
Marks after values point to notes of the source that are not given here.

Tests used:
[1] = system: Caucasian schizophrenia patients; assay: CATIE: time to discontinuation for all causes by SULT4A1-1 status; format: in vivo, human
Excerpt: The primary endpoint for the CATIE study was time to discontinuation for all causes (Lieberman et al., 2005). Thus the inventors evaluated the effect of SULT41-1 status on this important parameter.

[2] = system: Caucasian schizophrenia patients; assay: CATIE: hospitalization due to exacerbation of psychosis by SULT4A1-1 status; format: in vivo, human
Excerpt: To assess if SULT4A1-1 status impacts the risk of hospitalization in Caucasians, the inventors assigned SULT4A1-1 status to each CATIE subject and evaluated hospitalization events due to exacerbation of psychosis. For this analysis, the inventors assigned a dichotomous value (positive or negative) for hospitalization status to subjects in each phase of the trial based on only the first hospitalization event for a given patient in that phase. Patients participating in Phases 1, 2, and/or 3 were included in the totals for the appropriate drug.
A Kaplan-Meier survival analysis was performed to determine whether there was a difference between the survival (hospitalization) rates for the SULT4A1-1 negative and SULT4A1-1 positive patient populations treated with each of the atypical antipsychotics. Survival plots model the fraction of the population that survived (i.e., no hospitalization event) as a function of time.

[3] = system: Caucasian schizophrenia patients; assay: CATIE Phase I: change in total PANSS (LOCF) by SULT4A1-1 haplotype status, Caucasians; format: in vivo, human; details: for Number of individuals with change in total PANSS ≦−20% (responders) / Number of individuals with change in total PANSS ≧−20% (non-responders) / Responders: CATIE Caucasians, LOCF; for Responders: change in PANSS ≦−20%; for Effect size: olanzapine SULT4A1-1+ vs comparator group / Mean difference (95% CI) in delta PANSS: olanzapine SULT4A1-1+ minus comparator group: comparator = labelled drug in SULT4A1-1+ patients
Excerpt: There are several different metrics for quantifying response in clinical trials of antipsychotic medications. The most commonly used psychometric instrument is the Positive and Negative Syndrome Scale (PANSS), a 30-item semi-quantitative instrument scored by clinical professionals (Kay et al., 1987). The greater the decrease in PANSS score, the better the clinical response. The most direct measure of clinical response is absolute change in PANSS score. In addition to absolute change, the improvement is often reported as a percentage change from baseline PANSS score.
A decrease of at least 20% in total PANSS is one commonly used threshold for response (Leucht et al., 2009).
The design of the CATIE study has been described in detail by others (Lieberman et al., 2005; Stroup et al., 2003). […] A total of 738 subjects consented to provide DNA for genetic study. […] Retrospective genetic analyses, judged to be exempt from human studies requirements by an IRB, were conducted in the current study.
All tested patients were studied using well established clinical endpoints comparing baseline, intermediate, and last observation carried forward (LOCF) for the PANSS scores using CATIE data. LOCF analysis is a commonly used clinical endpoint for clinical trials for neuropsychiatric drugs, with changes in PANSS scores of between negative 20% and negative 30% used as typical endpoints to indicate clinically significant response (Leucht et al., 2009). To remove time on drug as a variable for the CATIE trial, analysis was limited to only those patients who were randomized to a different drug following the initial washout period (drug switchers).
The CATIE clinical data set included baseline PANSS scores based on clinical assessments prior to initiation of the assigned therapy, but following the washout period for any patients previously on antipsychotic medication. Follow up PANSS data for the CATIE trial were collected at each visit as described in detail by others (Stroup et al., 2003).
Since follow-up on subjects was not done at uniform time intervals, analysis was done using the last observation for each patient in treatment Phase I of the trial as the measure of response (last observation carried forward, LOCF). Main effect and interaction terms between the SULT4A1-1 haplotype and drug therapy were included in the linear model. A pre-determined set of contrasts for differences in percent change PANSS by haplotype within each drug therapy (three comparisons) and by drug therapy within each haplotype (six comparisons) were evaluated, with adjustment for multiple-comparisons using the step-up false-discovery rate (FDR) controlling procedure (Benjamini and Hochberg, 1995). A sub-analysis omitting those patients who were randomized to the same antipsychotic drug therapy was also conducted.

schizophrenia patients = assay: CATIE: months of successful treatment measured by the CGI scale (TMSUCC1); format: in vivo, human
Excerpt: The CATIE clinical data set included Clinical Global Impression (CGI) Scale, an observer-provided assessment of the psychiatric health of the patient (Stroup et al., 2003; Guy 1976). Patients are rated with the CGI Scale from 1 to 7, with higher scores indicating greater severity of illness. The CATIE study provided a response variable that measured the time (in months) of successful treatment as measured by the CGI scale (“TMSUCC1” in the CATIE data).

[4] = system: African American schizophrenia patients; assay: CATIE: change in total PANSS (LOCF) by SULT4A1-1 haplotype status, African Americans; format: in vivo, human; details: for Number of individuals with change in total PANSS ≦−20% (responders) / Number of individuals with change in total PANSS ≧−20% (non-responders): LOCF
Protocol: The design of the CATIE study has been described in detail by others (Lieberman et al., 2005; Stroup et al., 2003). […] A total of 738 subjects consented to provide DNA for genetic study. […] Retrospective genetic analyses, judged to be exempt from human studies requirements by an IRB, were conducted in the current study. All tested patients were studied using well established clinical endpoints comparing baseline, intermediate, and last observation carried forward (LOCF) for the PANSS scores using CATIE data. […] To remove time on drug as a variable for the CATIE trial, analysis was limited to only those patients who were randomized to a different drug following the initial washout period (drug switchers).

[5] = system: unsegmented patient populations; details: cited from earlier work
[6] = Unsegmented, Phases 1, 2 and/or 3, first event
[7] = SULT4A1-1 positive, randomized to a different drug

SMILES: OCCN1CCN(CCCN2c3ccccc3Sc3ccc(Cl)cc32)CC1 [Perphenazine]
- Time to discontinuation, mean ([1]; SULT4A1-1 negative): 10.6* Months
- Time to discontinuation, mean ([1]; SULT4A1-1 positive): 7.6** Months
- HOSP, number of patients hospitalized ([2]; SULT4A1-1 negative): 9
- HOSP, rate of hospitalization ([2]; SULT4A1-1 negative): 13.4%
- HOSP, number of patients hospitalized ([2]; SULT4A1-1 positive): 1
- HOSP, rate of hospitalization ([2]; SULT4A1-1 positive): 7.1%
- HOSP, rate of hospitalization ([2]; Unsegmented): 12.3%
- HOSP, number of patients hospitalized [2, 6]: 10
- DELTA PANSS % (mean change in PANSS score from baseline to LOCF) ([3]; SULT4A1-1 negative): −3*** %
- Number of individuals with change in total PANSS ≦−20% (responders) ([3]; SULT4A1-1 negative): 16
- Number of individuals with change in total PANSS ≧−20% (non-responders) ([3]; SULT4A1-1 negative): 47
- Responders ([3]; SULT4A1-1 negative): 25.4%**
- DELTA PANSS % (mean change in PANSS score from baseline to LOCF) ([3]; SULT4A1-1 positive): −10* %
- Number of individuals with change in total PANSS ≧−20% (non-responders) ([3]; SULT4A1-1 positive): 9
- Number of individuals with change in total PANSS ≦−20% (responders) [3, 7]: 5
- Responders ([3]; SULT4A1-1 positive): 35.7%
- Effect size: olanzapine SULT4A1-1+ vs comparator group [3]: 0.68
- Mean difference (95% CI) in delta PANSS: olanzapine SULT4A1-1+ minus comparator group [3]: −14.2 (−29.8 to 1.4)
- Length of successful treatment (CGI Months), Mean (schizophrenia patients; SULT4A1-1 negative): 7.03 Months
- Length of successful treatment (CGI Months), Mean (schizophrenia patients; SULT4A1-1 positive): 5.29 Months
- Length of successful treatment (CGI Months), Mean (schizophrenia patients; Unsegmented): 6.72 Months
- Responders ([4]; SULT4A1-1 negative): 27.0%
- Number of individuals with change in total PANSS ≦−20% (responders) ([4]; SULT4A1-1 negative): 10
- Number of individuals with change in total PANSS ≧−20% (non-responders) ([4]; SULT4A1-1 negative): 27
- Responders ([4]; SULT4A1-1 positive): 0%
- Number of individuals with change in total PANSS ≦−20% (responders) ([4]; SULT4A1-1 positive): 0
- Number of individuals with change in total PANSS ≧−20% (non-responders) ([4]; SULT4A1-1 positive): 2

SMILES: O=C1Cc2cc(CCN3CCN(c4nsc5ccccc45)CC3)c(Cl)cc2N1 [Ziprasidone]
- Time to discontinuation, mean ([1]; SULT4A1-1 negative): 8.2*** Months
- Time to discontinuation, mean ([1]; SULT4A1-1 positive): 11.7 Months
- HOSP, number of patients hospitalized ([2]; SULT4A1-1 negative): 11
- HOSP, rate of hospitalization ([2]; SULT4A1-1 negative): 13.4%
- HOSP, number of patients hospitalized ([2]; SULT4A1-1 positive): 2
- HOSP, rate of hospitalization ([2]; SULT4A1-1 positive): 7.1%
- HOSP, rate of hospitalization ([2]; Unsegmented): 11.8%
- HOSP, number of patients hospitalized [2, 6]: 13
- Kaplan-Meier: difference between survival (no hospitalization) rates of SULT4A1-1 negative and positive patients ([2]; per drug): not statistically significant
- Mean difference in total PANSS score between olanzapine and labelled drug, CATIE SULT4A1-1+ ([3]; SULT4A1-1+): −17.9
- DELTA PANSS % (mean change in PANSS score from baseline to LOCF) ([3]; SULT4A1-1 negative): −4*** %
- Number of individuals with change in total PANSS ≦−20% (responders) ([3]; SULT4A1-1 negative): 6
- Number of individuals with change in total PANSS ≧−20% (non-responders) ([3]; SULT4A1-1 negative): 32
- Responders ([3]; SULT4A1-1 negative): 15.7%**
- DELTA PANSS % (mean change in PANSS score from baseline to LOCF) ([3]; SULT4A1-1 positive): −8* %
- Number of individuals with change in total PANSS ≧−20% (non-responders) ([3]; SULT4A1-1 positive): 7
- Number of individuals with change in total PANSS ≦−20% (responders) [3, 7]: 3
- Responders ([3]; SULT4A1-1 positive): 30.0%
- Mean difference in total PANSS score between olanzapine and labelled drug, CATIE SULT4A1-1− ([3]; SULT4A1-1−): −2.1
- Mean difference in total PANSS score between olanzapine and labelled drug, CATIE unsegmented ([3]; Unsegmented): −4.9
- Effect size: olanzapine SULT4A1-1+ vs comparator group [3]: 0.77
- Mean difference (95% CI) in delta PANSS: olanzapine SULT4A1-1+ minus comparator group [3]: −16.1 (−32.7 to 0.5)
- Effect Size attributable to SULT4A1-1 status in CATIE ([3]; olanzapine-treated SULT4A1-1 positive versus labelled drug-treated SULT4A1-1 positive): −0.77^b
- Length of successful treatment (CGI Months), Mean (schizophrenia patients; SULT4A1-1 negative): 4.51 Months
- Length of successful treatment (CGI Months), Mean (schizophrenia patients; SULT4A1-1 positive): 8.36^d Months
- Length of successful treatment (CGI Months), Mean (schizophrenia patients; Unsegmented): 5.36 Months
- Effect Size vs. FGA ([5]; first generation antipsychotics, Davis et al. (2003)): −0.04
- Effect Size vs. Placebo ([5]; meta-analysis, Leucht et al. (2009), negative = greater reduction in PANSS): −0.48
- Mean difference in total PANSS score between olanzapine and labelled drug, Meta-analysis ([5]; unsegmented populations, Leucht et al. (2009)): −8.3
- Responders ([4]; SULT4A1-1 negative): 15.4%
- Number of individuals with change in total PANSS ≦−20% (responders) ([4]; SULT4A1-1 negative): 4
- Number of individuals with change in total PANSS ≧−20% (non-responders) ([4]; SULT4A1-1 negative): 22
- Responders ([4]; SULT4A1-1 positive): 0%
- Number of individuals with change in total PANSS ≦−20% (responders) ([4]; SULT4A1-1 positive): 0
- Number of individuals with change in total PANSS ≧−20% (non-responders) ([4]; SULT4A1-1 positive): 3
